The IC50 is the concentration at which inhibition is half-maximal.

Structures are written as SMILES. Starred links: 1 amine or outer side, 2 acyl side, 3 side chain; linkers in the order of their positions; H or OH if unused. Non-standard residues stand in square brackets, D forms with d. Residues, ends and D or L forms follow the SMILES beside them. dPro(4R-(4-pyridylmethyl)) = O=C(O)[C@H]1C[C@@H](Cc2ccncc2)CN1; Trp(βS-Me,4-F) = C[C@@H](c1c[nH]c2cccc(F)c12)[C@H](N)C(=O)O; Bip(4'-COOH) = N[C@@H](Cc1ccc(-c2ccc(C(=O)O)cc2)cc1)C(=O)O; dPro(3S-(4-F-Bn)) = O=C(O)[C@@H]1NCC[C@@H]1Cc1ccc(F)cc1; X41 = O=C([C@@H](N[*:1])[C@@H](O)c1ccncc1)[*:2]; Ala(pyrimidin-5-yl) = N[C@@H](Cc1cncnc1)C(=O)O; Phe(4-COOH) = N[C@@H](Cc1ccc(C(=O)O)cc1)C(=O)O; Bip = N[C@@H](Cc1ccc(-c2ccccc2)cc1)C(=O)O; Pro(cis-4-F) = O=C(O)[C@@H]1C[C@H](F)CN1; Met(O2) = CS(=O)(=O)CC[C@H](N)C(=O)O; d(αMeF) = C[C@@](N)(Cc1ccccc1)C(=O)O; hTyr = N[C@@H](CCc1ccc(O)cc1)C(=O)O; cisHyp = O=C(O)[C@@H]1C[C@H](O)CN1; d(αMeD) = C[C@@](N)(CC(=O)O)C(=O)O; 4Pal = N[C@@H](Cc1ccncc1)C(=O)O; aThr = C[C@H](O)[C@H](N)C(=O)O; d(αMeS) = C[C@@](N)(CO)C(=O)O; NMeDab = CN[C@@H](CCN)C(=O)O; Dab = NCC[C@H](N)C(=O)O; Aib = CC(C)(N)C(=O)O

The target in this assay is T1, IL-1β (Homo sapiens, UniProt P01584).
T1 construct: purchased BioLegend 579404
T1 sequence (P01584 117-269): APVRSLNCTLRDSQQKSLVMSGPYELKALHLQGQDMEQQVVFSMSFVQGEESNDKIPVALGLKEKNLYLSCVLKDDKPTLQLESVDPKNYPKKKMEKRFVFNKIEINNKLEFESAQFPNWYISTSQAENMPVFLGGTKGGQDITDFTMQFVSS
The assay can be described thus: IL-6 assay in MRC5 cells: inhibition of IL-1β induced IL-6 secretion (AlphaLISA). The note with it: inhibition of IL-1β induced IL-6 secretion in MRC5 cells; compound pre-incubated 1 hour with recombinant human IL-1β; read-out: MRC5 IC50. It counts as cell-based. The method in brief:
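Compound was pre-incubated 1 h at ambient temperature with recombinant human IL-1β at 2λ EC80 before adding human lung fibroblast MRC5 cells (3000/well) in EMEM with 0.025% BSA. After overnight culture at 37 °C, 5% CO2, secreted IL-6 in conditioned medium was measured by AlphaLISA; IC50 from 4-parameter logistic fits.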
Background: Alpha assays give light when donor and acceptor beads are brought close together.
On to `CO[C@H](C)[C@@H]1NC(=O)[C@@](C)(CC(=O)O)NC(=O)[C@H](Cc2c[nH]c3ccccc23)NC(=O)[C@H](CO)NC(=O)C(C)(C)NC(=O)[C@H]([C@@H](C)c2c[nH]c3cccc(F)c23)NC(=O)[C@@H]2C[C@H](F)CN2C(=O)CNC(=O)[C@H](Cc2ccc(C(=O)O)cc2)NC(=O)[C@H](Cc2ccncc2)NC(=O)[C@H](Cc2ccc(-c3ccc(C(=O)O)cc3)cc2)NC(=O)[C@H]2C[C@@H](Cc3ccncc3)CN2C(=O)CNC(=O)[C@H](CCN)NC(=O)[C@H](CCC(N)=O)NC1=O` [Example 255] (cyclo([Bip(4'-COOH)][4Pal][Phe(4-COOH)]G[Pro(cis-4-F)][Trp(βS-Me,4-F)][Aib]SW[d(αMeD)]T(Me)Q[Dab]G[dPro(4R-(4-pyridylmethyl))])), for which the IC50 was determined as 0.011 nM.

As to `C[C@@H](c1c[nH]c2cccc(F)c12)[C@@H]1NC(=O)[C@@H]2C[C@H](F)CN2C(=O)CNC(=O)[C@H](Cc2ccc(C(=O)O)cc2)NC(=O)[C@H](Cc2ccncc2)NC(=O)[C@H](Cc2ccc(-c3ccc(C(=O)O)cc3)cc2)NC(=O)[C@H]2C[C@@H](Cc3ccncc3)CN2C(=O)CNC(=O)[C@H](CCN)NC(=O)[C@H](CCC(N)=O)NC(=O)[C@H](CCc2ccc(O)cc2)NC(=O)[C@@](C)(CC(=O)O)NC(=O)[C@H](Cc2c[nH]c3ccccc23)NC(=O)[C@H](CO)NC(=O)C(C)(C)NC1=O` [Example 256] (cyclo([Bip(4'-COOH)][4Pal][Phe(4-COOH)]G[Pro(cis-4-F)][Trp(βS-Me,4-F)][Aib]SW[d(αMeD)][hTyr]Q[Dab]G[dPro(4R-(4-pyridylmethyl))])), the IC50 came to 0.012 nM. Next, `C[C@H](O)[C@@H]1NC(=O)[C@@](C)(Cc2ccccc2)NC(=O)[C@H](Cc2c[nH]c3ccccc23)NC(=O)[C@H](CO)NC(=O)C(C)(C)NC(=O)[C@H]([C@@H](C)c2c[nH]c3cccc(F)c23)NC(=O)[C@@H]2C[C@H](F)CN2C(=O)CNC(=O)[C@H](Cc2ccc(C(=O)O)cc2)NC(=O)[C@H](Cc2ccncc2)NC(=O)[C@H](Cc2ccc(-c3ccc(C(=O)O)cc3)cc2)NC(=O)[C@H]2C[C@@H](Cc3ccncc3)CN2C(=O)CNC(=O)[C@H](CCN)NC(=O)[C@H](CCC(N)=O)NC1=O` [Example 257] (cyclo([Bip(4'-COOH)][4Pal][Phe(4-COOH)]G[Pro(cis-4-F)][Trp(βS-Me,4-F)][Aib]SW[d(αMeF)][aThr]Q[Dab]G[dPro(4R-(4-pyridylmethyl))])): 0.021 nM; `C[C@@H](c1c[nH]c2cccc(F)c12)[C@@H]1NC(=O)[C@@H]2C[C@H](F)CN2C(=O)CNC(=O)[C@H](Cc2ccc(C(=O)O)cc2)NC(=O)[C@H](Cc2ccncc2)NC(=O)[C@H](Cc2ccc(-c3ccc(C(=O)O)cc3)cc2)NC(=O)[C@H]2C[C@@H](Cc3ccncc3)CN2C(=O)CNC(=O)[C@H](CCN)NC(=O)[C@H](CCC(N)=O)NC(=O)[C@H](CCC(=O)O)NC(=O)[C@@](C)(Cc2ccccc2)NC(=O)[C@H](Cc2c[nH]c3ccccc23)NC(=O)[C@H](CO)NC(=O)C(C)(C)NC1=O` [Example 258] (cyclo([Bip(4'-COOH)][4Pal][Phe(4-COOH)]G[Pro(cis-4-F)][Trp(βS-Me,4-F)][Aib]SW[d(αMeF)]EQ[Dab]G[dPro(4R-(4-pyridylmethyl))])): 0.02 nM. Take `C[C@@H](c1c[nH]c2cccc(F)c12)[C@@H]1NC(=O)[C@@H]2C[C@H](F)CN2C(=O)CNC(=O)[C@H](Cc2ccc(C(=O)O)cc2)NC(=O)[C@H](Cc2ccncc2)NC(=O)[C@H](Cc2ccc(-c3ccc(C(=O)O)cc3)cc2)NC(=O)[C@H]2C[C@@H](Cc3ccncc3)CN2C(=O)CNC(=O)[C@H](CCN)NC(=O)[C@H](CCC(N)=O)NC(=O)[C@H](CC(=O)O)NC(=O)[C@@](C)(Cc2ccccc2)NC(=O)[C@H](Cc2c[nH]c3ccccc23)NC(=O)[C@H](CO)NC(=O)C(C)(C)NC1=O` [Example 259] (cyclo([Bip(4'-COOH)][4Pal][Phe(4-COOH)]G[Pro(cis-4-F)][Trp(βS-Me,4-F)][Aib]SW[d(αMeF)]DQ[Dab]G[dPro(4R-(4-pyridylmethyl))])): the IC50 came out at 0.014 nM. As for `COC[C@@]1(C)NC(=O)[C@H](Cc2c[nH]c3ccccc23)NC(=O)[C@H](CO)NC(=O)C(C)(C)NC(=O)[C@H]([C@@H](C)c2c[nH]c3cccc(F)c23)NC(=O)[C@@H]2C[C@H](F)CN2C(=O)CNC(=O)[C@H](Cc2ccc(C(=O)O)cc2)NC(=O)[C@H](Cc2ccncc2)NC(=O)[C@H](Cc2ccc(-c3ccc(C(=O)O)cc3)cc2)NC(=O)[C@H]2C[C@@H](Cc3ccncc3)CN2C(=O)CNC(=O)[C@H](CCN)NC(=O)[C@H](CCC(N)=O)NC(=O)[C@H](Cc2cncnc2)NC1=O` [Example 260] (cyclo([Bip(4'-COOH)][4Pal][Phe(4-COOH)]G[Pro(cis-4-F)][Trp(βS-Me,4-F)][Aib]SW[d(αMeS)](Me)[Ala(pyrimidin-5-yl)]Q[Dab]G[dPro(4R-(4-pyridylmethyl))])), the IC50 stood at 0.013 nM. The result for `COC[C@@]1(C)NC(=O)[C@H](Cc2c[nH]c3ccccc23)NC(=O)[C@H](CO)NC(=O)C(C)(C)NC(=O)[C@H]([C@@H](C)c2c[nH]c3cccc(F)c23)NC(=O)[C@@H]2C[C@H](F)CN2C(=O)CNC(=O)[C@H](Cc2ccc(C(=O)O)cc2)NC(=O)[C@H](Cc2ccncc2)NC(=O)[C@H](Cc2ccc(-c3ccc(C(=O)O)cc3)cc2)NC(=O)[C@H]2C[C@@H](Cc3ccncc3)CN2C(=O)CNC(=O)[C@H](CCN)NC(=O)[C@H](CCC(N)=O)NC(=O)[C@H]([C@H](C)O)NC1=O` [Example 261] (cyclo([Bip(4'-COOH)][4Pal][Phe(4-COOH)]G[Pro(cis-4-F)][Trp(βS-Me,4-F)][Aib]SW[d(αMeS)](Me)[aThr]Q[Dab]G[dPro(4R-(4-pyridylmethyl))])) reads 0.017 nM; that for `C[C@@H](c1c[nH]c2cccc(F)c12)[C@@H]1NC(=O)[C@@H]2C[C@H](F)CN2C(=O)CNC(=O)[C@H](Cc2ccc(C(=O)O)cc2)NC(=O)[C@H](Cc2ccncc2)NC(=O)[C@H](Cc2ccc(-c3ccc(C(=O)O)cc3)cc2)NC(=O)[C@H]2C[C@@H](Cc3ccncc3)CN2C(=O)CNC(=O)[C@H](CCN)N(C)C(=O)[C@H](CCC(N)=O)NC(=O)[C@H](Cc2cncnc2)NC(=O)C(C)(C)NC(=O)[C@H](Cc2c[nH]c3ccccc23)NC(=O)[C@H](CO)NC(=O)C(C)(C)NC1=O` [Example 262] (cyclo([Bip(4'-COOH)][4Pal][Phe(4-COOH)]G[Pro(cis-4-F)][Trp(βS-Me,4-F)][Aib]SW[Aib][Ala(pyrimidin-5-yl)]Q[NMeDab]G[dPro(4R-(4-pyridylmethyl))])), 0.02 nM. Next, `C[C@@H](c1c[nH]c2cccc(F)c12)[C@@H]1NC(=O)[C@@H]2C[C@H](F)CN2C(=O)CNC(=O)[C@H](Cc2ccc(C(=O)O)cc2)NC(=O)[C@H](Cc2ccncc2)NC(=O)[C@H](Cc2ccc(-c3ccc(C(=O)O)cc3)cc2)NC(=O)[C@H]2[C@@H](Cc3ccc(F)cc3)CCN2C(=O)CNC(=O)[C@H](CCN)NC(=O)[C@H](CCC(N)=O)NC(=O)[C@H]([C@@H](O)c2ccncc2)NC(=O)[C@@](C)(CC(=O)O)NC(=O)[C@H](Cc2c[nH]c3ccccc23)NC(=O)[C@H](CO)NC(=O)C(C)(C)NC1=O` [Example 263] (cyclo([Bip(4'-COOH)][4Pal][Phe(4-COOH)]G[Pro(cis-4-F)][Trp(βS-Me,4-F)][Aib]SW[d(αMeD)][X41]Q[Dab]G[dPro(3S-(4-F-Bn))])): 0.017 nM; `C[C@@H](c1c[nH]c2cccc(F)c12)[C@@H]1NC(=O)[C@@H]2C[C@H](O)CN2C(=O)CNC(=O)[C@H](Cc2ccc(C(=O)O)cc2)NC(=O)[C@H](Cc2ccncc2)NC(=O)[C@H](Cc2ccc(-c3ccccc3)cc2)NC(=O)[C@H]2C[C@@H](Cc3ccncc3)CN2C(=O)CNC(=O)[C@H](CCN)NC(=O)[C@H](CCC(N)=O)NC(=O)[C@H](Cc2cncnc2)NC(=O)[C@@](C)(CC(=O)O)NC(=O)[C@H](Cc2c[nH]c3ccccc23)NC(=O)[C@H](CO)NC(=O)C(C)(C)NC1=O` [Example 264] (cyclo([Bip][4Pal][Phe(4-COOH)]G[cisHyp][Trp(βS-Me,4-F)][Aib]SW[d(αMeD)][Ala(pyrimidin-5-yl)]Q[Dab]G[dPro(4R-(4-pyridylmethyl))])): 0.017 nM. Regarding `C[C@@H](c1c[nH]c2cccc(F)c12)[C@@H]1NC(=O)[C@@H]2C[C@H](F)CN2C(=O)CNC(=O)[C@H](Cc2ccc(C(=O)O)cc2)NC(=O)[C@H](Cc2ccncc2)NC(=O)[C@H](Cc2ccc(-c3ccccc3)cc2)NC(=O)[C@H]2C[C@@H](Cc3ccncc3)CN2C(=O)CNC(=O)[C@H](CCN)NC(=O)[C@H](CCC(N)=O)NC(=O)[C@@H](CC(=O)O)NC(=O)C(C)(C)NC(=O)[C@H](Cc2c[nH]c3ccccc23)NC(=O)[C@H](CO)NC(=O)C(C)(C)NC1=O` [Example 265] (cyclo([Bip][4Pal][Phe(4-COOH)]G[Pro(cis-4-F)][Trp(βS-Me,4-F)][Aib]SW[Aib][dD]Q[Dab]G[dPro(4R-(4-pyridylmethyl))])), the IC50 was found to be 0.022 nM. Next, `C[C@@H](c1c[nH]c2cccc(F)c12)[C@@H]1NC(=O)[C@@H]2C[C@H](F)CN2C(=O)CNC(=O)[C@H](Cc2ccc(C(=O)O)cc2)NC(=O)[C@H](Cc2ccncc2)NC(=O)[C@H](Cc2ccc(-c3ccc(C(=O)O)cc3)cc2)NC(=O)[C@H]2C[C@@H](Cc3ccncc3)CN2C(=O)CNC(=O)[C@H](CCN)NC(=O)[C@H](CCC(N)=O)NC(=O)[C@H](CCS(C)(=O)=O)NC(=O)C(C)(C)NC(=O)[C@H](Cc2c[nH]c3ccccc23)NC(=O)[C@H](CO)NC(=O)C(C)(C)NC1=O` [Example 266] (cyclo([Bip(4'-COOH)][4Pal][Phe(4-COOH)]G[Pro(cis-4-F)][Trp(βS-Me,4-F)][Aib]SW[Aib][Met(O2)]Q[Dab]G[dPro(4R-(4-pyridylmethyl))])): 0.019 nM.

(Values after patent US20260242419A1, “A CYCLIC PEPTIDE FOR TRAPPING INTERLEUKIN-1 BETA” (Merck Sharp & Dohme LLC, priority 2023, published 2026).)
